# Values quoted from earlier work in US20050123576A1, “Mupirocin compositions for topical use, an improved process of making same and methods of using same” (priority 2003, published 2005).
# Tests used:
# [1] = glycerol, mineral oil, caprylic-capric triglyceride, isopropyl myristate, isopropyl palmitate, octyl dodecanol (Eutanol G), isopropyl stearate
# [2] = in the presence of water, acids and bases
smiles,measurement,setting,value
C/C(=C\C(=O)OCCCCCCCCC(=O)O)C[C@@H]1OC[C@H](C[C@@H]2O[C@H]2[C@@H](C)[C@H](C)O)[C@@H](O)[C@H]1O [Mupirocin],solubility in pharmaceutically acceptable carriers,[1],insoluble
same,stability (hydrolysis and rearrangement reactions),[2],unstable
